# Experiments:
# AQP3 = AQP3 mRNA level decreased by UV irradiation, RT-PCR in keratinocytes; assay type: cell-based, human; details: HaCaT cells, 20 mJ/cm^2 UVB, peptide 1, 10, 50 μM, 4 hours after irradiation; FIGS. 7A, 7C
# Method: The expression of genes related to aging is inhibited when irradiated with UV.
# (§1) First, HaCaT cells were seeded in a 6-well plate at a cell density of 5×10^5 cell/well, and then the cells were cultured in DMEM medium containing 10% fetal bovine serum (FBS) for 24 hours. The cultured cells were washed once with serum free DMEM medium, and then the peptide of the present invention was mixed in 1 mL of the serum free DMEM medium at each of concentrations of 1, 10, and 50 μM, and dispensed into the cells. A positive control (PC) was treated with 2.5 mM of N-Acetylcysteine (NaC) instead of the above peptide.
# The cells were cultured in a CO2 incubator at 37° C. for 1 hour. The medium of the cultured cells was transferred to a tube (e-tube), 1 ml of PBS was added, and irradiation was performed with 20 mJ/cm^2 of UVB using a UV irradiator (VILBER LOURMAT, Cat No.: 3102-BSU, France). After removing PBS, 900 μL of the medium transferred to the tube was added, and culture was performed in a CO2 incubator at 37° C. for 4 hours. The cultured cells were washed twice with PBS, and then RNA was extracted from the cells using easy blue (iNtRON, Cat. No.: 17061, Korea). The extracted RNA was subjected to RT reaction using a kit (enzynomics, Cat. No.: RT200, Korea). Thereafter, RT-PCR was performed using a PCR kit (enzynomics, Cat. No.: R581T, Korea). […]
# MMP-1 = MMP-1 protein expression increased by UV irradiation, western blot in fibroblasts; assay type: cell-based, mouse; details: NIH3T3 cells, 6 J/cm^2 UVA, peptide 1, 10, 50 μM, 24 hours after irradiation; FIG. 6A
# Method: The expression of MMP-1 encoding proteins related to collagen degradation increases by ultraviolet irradiation. Therefore, it was confirmed whether the expression of the MMP-1 protein was inhibited again and the cell aging phenomenon was inhibited when treated with the peptide of the present invention.
# as §1, with “First, NIH3T3 cells and HaCaT cells” for “First, HaCaT cells”, “5×10^5 cell/well, respectively, and then” for “5×10^5 cell/well, and then”, “medium, and the peptide” for “medium, and then the peptide”
# The cells were cultured in a CO2 incubator at 37° C. for 1 hour. The medium of the cultured cells was transferred to a tube (e-tube), 1 ml of PBS was added, and then the NIH3T3 cells were irradiated with 6 J/cm^2 of UVA and the HaCaT cells were irradiated with 15 mJ/cm^2 of UVB using a UV irradiator (VILBER LOURMAT, Cat No.: 3102-BSU, France). After removing PBS, 900 μL of the medium transferred to the tube was added, and culture was performed in a CO2 incubator at 37° C. for 24 hours. […]
# NIH3T3 cells = experiment: Intracellular ROS level after UVA irradiation (DCFH-DA, FACS) in fibroblasts; assay type: cell-based, mouse; details: 8 J/cm^2 UVA, peptide 1, 10, 50 μM, 24 hours after irradiation, FIG. 4A
# Method: The reactive oxygen species level increases when UV is irradiated. Therefore, it was confirmed whether the reactive oxygen species level decreased again and the aging phenomenon caused by oxidative stress in cells was inhibited when treated with the peptide of the present invention.
# as §1, with “First, NIH3T3 cells and” for “First,”, “cell/well, respectively,” for “cell/well,”
# The cells were cultured in a CO2 incubator at 37° C. for 1 hour. The medium of the cultured cells was transferred to a tube, 1 ml of PBS was added, and then the NIH3T3 cells were irradiated with 8 J/cm^2 of UVA and the HaCaT cells were irradiated with 15 mJ/cm^2 of UVB using a UV irradiator (VILBER LOURMAT, Cat No.: 3102-BSU, France). […] After centrifugation, the cells were washed with PBS, and a fluorescence value was measured through FACS.
sequence,measurement,setting,value
LCACCLHNCNECQ,mRNA level of AQP3 decreased by UV irradiation,AQP3,increased again
same,expression of MMP-1 increased by UV irradiation,MMP-1,inhibited
same,intracellular reactive oxygen species level increased by UV irradiation,NIH3T3 cells,decreased
